Laboratory results reported in PMC3191288 (Matrix biology : journal of the International Society for …, 2011).

What was measured:
[1] = system: proMMP-2 activation by HT1080 cell membranes; assay: Activation of purified proMMP-2 by isolated HT1080 cell membranes; format: biochemical, human; details: peptide 3.7–100 μM, 16 h at 22 °C, pH 7.4; repeated at least 3 times
[2] = molecular target: T1, PEX (hemopexin domain of MMP-2) (Homo sapiens, UniProt P08253); assay: Surface plasmon resonance, PEX over immobilized peptide; format: binding; details: PEX 0.3–10 μM over immobilized peptide, SPR
T1 sequence (P08253 446-660): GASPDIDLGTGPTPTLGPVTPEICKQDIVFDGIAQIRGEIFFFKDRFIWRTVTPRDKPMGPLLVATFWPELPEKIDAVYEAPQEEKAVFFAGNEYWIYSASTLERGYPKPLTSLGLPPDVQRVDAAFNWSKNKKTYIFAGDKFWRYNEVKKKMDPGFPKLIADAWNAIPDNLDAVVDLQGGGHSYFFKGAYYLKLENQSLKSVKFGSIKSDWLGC

[3] = system: collagen binding domain of MMP-2 (CBD); assay: Surface plasmon resonance, CBD over immobilized peptide; design: species or system human; details: CBD 10 μM over immobilized peptide, SPR
[4] = system: proMMP-2 activation in HT1080 fibrosarcoma cells; assay: Cell surface activation of proMMP-2 in Con A stimulated HT1080 cell culture; format: cell-based, human; details: Con A 20 μg/ml, 0 nM C-TIMP-2
[5] = molecular target: recombinant human MMP-2^E404A (human) (UniProt P08253); assay: ELISA
[6] = molecular target: recombinant full-length TIMP-2 (human (plasmid pGWIGH/htimp-2)) (UniProt P16035); assay: ELISA
proMMP-2 activation = details: ref Strongin et al., 1995; cited from earlier work
[7] = molecular target: recombinant full-length TIMP-2 (human (plasmid pGWIGH/htimp-2), UniProt P16035 27-220); assay: ELISA
recombinant full-length TIMP-2, sequence (P16035 27-220): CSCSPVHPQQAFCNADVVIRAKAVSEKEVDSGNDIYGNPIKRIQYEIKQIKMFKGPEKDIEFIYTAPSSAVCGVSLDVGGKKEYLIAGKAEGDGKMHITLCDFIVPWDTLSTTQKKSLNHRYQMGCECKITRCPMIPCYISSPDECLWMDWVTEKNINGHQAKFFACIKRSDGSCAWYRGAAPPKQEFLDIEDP

recombinant full-length TIMP-2 (human (plasmid pGWIGH/htimp-2)), sequence (P16035 27-220): as above

CAWYRGAAPPK [P175S]
inhibition of proMMP-2 activation by peptide [1]: did not have any inhibitory effect on the cell membrane- mediated activation of proMMP-2
binding of PEX to peptide [2]: consistently very weak
binding of CBD to peptide [3]: did not bind

concanavalin A [Con A]
activated MMP-2 band intensity [4]: 34,199 RDU
non-activated MMP-2 band intensity [4]: 3,439 RDU
proMMP-2 activated by Con A [4]: > 90%

recombinant carboxyl-terminal domain of TIMP-2 (C-TIMP-2) (from UniProt P16035 154-220) (domain or fragment)
IC50 [5]: 5000 nM
Kd [5]: 390 nM

recombinant human MMP-2^E404A (from UniProt P08253 30-660) (enzyme)
EC50 [6]: 50 nM

tissue inhibitor of matrix metalloproteinase 2 [TIMP-2]
concentration at which full-length TIMP-2 inhibited activation of proMMP-2 (proMMP-2 activation): greater than 285 nM

B1: hemopexin-like domain of MMP-2 (PEX) (domain or fragment, human, UniProt P08253 446-660, looked up)
chain: GASPDIDLGTGPTPTLGPVTPEICKQDIVFDGIAQIRGEIFFFKDRFIWRTVTPRDKPMGPLLVATFWPELPEKIDAVYEAPQEEKAVFFAGNEYWIYSASTLERGYPKPLTSLGLPPDVQRVDAAFNWSKNKKTYIFAGDKFWRYNEVKKKMDPGFPKLIADAWNAIPDNLDAVVDLQGGGHSYFFKGAYYLKLENQSLKSVKFGSIKSDWLGC
modifications: biotinylated (sites not given) in the assays on coated TIMP-2; unlabeled when coated and in SPR
EC50 [7]: 150 nM
